Ends that are not written are not given here.
What was measured:
[1] = test system: C. albicans CMCC(F) 98001; experiment: agar punch method, inhibition circle; format: cell-based, Candida albicans; conditions: 6 mm hole, 55 μL of 1 mg/mL, SDA, 28°C, 16–18 h, mean ± SD, three replicates, + control given per plate group
Description: (§1) Staphylococcus aureus CMCC(B) 26003, B. thuringiensis, E. coli, and P. aeruginosa CMCC(B)10104 were cultured in NA medium and C. albicans CMCC(F) 98001 was cultured in SDA medium. They were incubated in a constant-temperature (bacteria: 37°C; fungi: 28°C) incubator for 16–20 h. Thereafter, single colonies were picked and incubated in 50 mL MHB at 160 rpm/min at the optimal growth temperature (bacteria: 37°C; fungi: 28°C). Microbial suspensions of 1 × 10^6 CFU/mL were then prepared ([Chen et al., 2016]).
(§2) 100 μL of 1 × 10^6 CFU/mL microbial suspension (E. coli, P. aeruginosa CMCC(B)10104, B. thuringiensis, S. aureus CMCC(B) 26003, or C. albicans CMCC(F) 98001) was evenly applied to dishes containing 20 mL NA (bacteria) or SDA (fungi). After the microbial solution solidified, six holes per dish were punched with a sterile pipette tip of 6 mm in diameter, with each hole spaced >20 mm apart and > 10 mm apart from the edge of the dish. […] Next, 55 μL of 1 mg/mL control/treatment was added to each hole and incubated in a constant-temperature (bacteria: 37°C; fungi: 28°C) incubator for 16–18 h ([Chen et al., 2016]; [Gong et al., 2022]), with three replicates for each treatment group. The diameter of the inhibition circle was measured using ImageJ software (National Institutes of Health, United States) in order to preliminarily determine whether the candidate peptides had inhibitory activity.

[2] = test system: S. aureus CMCC(B) 26003; experiment: agar punch method, inhibition circle; format: cell-based, Staphylococcus aureus; conditions: 6 mm hole, 55 μL of 1 mg/mL, NA, 37°C, 16–18 h, mean ± SD, three replicates, + control given per plate group
Description: as §1, §2

[3] = test system: B. thuringiensis; experiment: agar punch method, inhibition circle; format: cell-based, Bacillus thuringiensis; conditions: 6 mm hole, 55 μL of 1 mg/mL, NA, 37°C (Fig. S3C: 30°C), 16–18 h, mean ± SD, three replicates, + control given per plate group
Description: as §1, §2

[4] = test system: P. aeruginosa CMCC(B)10104; experiment: agar punch method, inhibition circle; format: cell-based, Pseudomonas aeruginosa; conditions: 6 mm hole, 55 μL of 1 mg/mL, NA, 37°C, 16–18 h, mean ± SD, three replicates, + control given per plate group
Description: as §1, §2

[5] = test system: E. coli; experiment: agar punch method, inhibition circle; format: cell-based, Escherichia coli; conditions: 6 mm hole, 55 μL of 1 mg/mL, NA, 37°C, 16–18 h, mean ± SD, three replicates, + control given per plate group
Description: as §1, §2

[6] = test system: E. coli; format: cell-based, Escherichia coli
Description: as §1
(§3) The MIC values of five candidate peptides (FD4, FD10, FD12, FD14, and FD15), which were selected based on physicochemical properties and antimicrobial effects (determined by the agar punch method), were evaluated using a micro-broth dilution method ([Zhou and Zhou, 2018]). Serial two-fold dilutions of the candidate peptides were prepared in 96-well plates containing the same microbial inoculum (E. coli, P. aeruginosa CMCC(B)10104, B. thuringiensis, S. aureus CMCC(B) 26003, or C. albicans CMCC(F) 98001). The plates were incubated (bacteria: 37°C; fungi: 28°C) for 16–18 h. Ampicillin was used as the positive control. The MIC was defined as the lowest peptide concentration where no visible growth occurred ([Diao et al., 2014]). The experiment was conducted in triplicate.

[7] = test system: S. aureus CMCC(B) 26003; format: cell-based, Staphylococcus aureus; conditions: CMCC(B) 26003
Description: (§4) E. coli and S. aureus CMCC(B) 26003 (1 × 10^6 CFU/mL) were incubated in MHB with various final physiological concentrations of serum salts (150 mM NaCl, 4.5 mM KCl, 1 mM MgCl2, and […]). 50 μL of these E. coli or S. aureus CMCC(B) 26003 suspensions and 50 μL of AMP (serially diluted two-fold to a final concentration of 256 μg/mL) were added to a 96-well plate and incubated at 37°C for 16–18 h ([Chou et al., 2016]). The MIC values were then determined. The experiment was conducted in triplicate.

[8] = test system: S. aureus CMCC(B) 26003; format: cell-based, Staphylococcus aureus; conditions: CMCC(B) 26003; remark: listed apart in the source
Description: as §1, §3

[9] = test system: B. thuringiensis; format: cell-based, Bacillus thuringiensis
Description: as §1, §3

[10] = test system: E. coli; format: cell-based, Escherichia coli; remark: listed apart in the source
Description: as §4

[11] = test system: C. albicans CMCC(F) 98001; format: cell-based, Candida albicans; conditions: CMCC(F) 98001
Description: as §1, §3

[12] = test system: P. aeruginosa CMCC(B)10104; format: cell-based, Pseudomonas aeruginosa; conditions: CMCC(B)10104
Description: as §1, §3

## VACAKRVVR [FD1]
[1]
  Inhibition circle diameter (mm) C. albicans CMCC(F) 98001: 0 mm
[2]
  Inhibition circle diameter (mm) S. aureus CMCC(B) 26003: 0 mm
[3]
  Inhibition circle diameter (mm) B. thuringiensis: 0 mm
[4]
  Inhibition circle diameter (mm) P. aeruginosa CMCC(B)10104: 0 mm
[5]
  Inhibition circle diameter (mm) E. coli: 0 mm

## KIYVLLRRQA [FD12]
[6]
  MIC (μg/mL) E. coli: 32 µg/mL
[7]
  MIC, Control: 16 mg/L
  MIC, FeCl3: 32 mg/L
  MIC, KCl: 8 mg/L
  MIC, MgCl2: 32 mg/L
  MIC, NaCl: 32 mg/L
[8]
  MIC (μg/mL) S. aureus CMCC(B) 26003: 16 µg/mL
[9]
  MIC (μg/mL) B. thuringiensis: 128 µg/mL
[10]
  MIC, Control: 32 mg/L
  MIC, FeCl3: 32 mg/L
  MIC, KCl: 16 mg/L
  MIC, MgCl2: 64 mg/L
  MIC, NaCl: 64 mg/L

## AFQRTIRKFL [FD5]
[1]
  Inhibition circle diameter (mm) C. albicans CMCC(F) 98001: 0 mm
[2]
  Inhibition circle diameter (mm) S. aureus CMCC(B) 26003: 0 mm
[3]
  Inhibition circle diameter (mm) B. thuringiensis: 0 mm
[4]
  Inhibition circle diameter (mm) P. aeruginosa CMCC(B)10104: 0 mm
[5]
  Inhibition circle diameter (mm) E. coli: 0 mm

## LVTRAAFHGKKV [FD8]
[1]
  Inhibition circle diameter (mm) C. albicans CMCC(F) 98001: 0 mm
[2]
  Inhibition circle diameter (mm) S. aureus CMCC(B) 26003: 0 mm
[3]
  Inhibition circle diameter (mm) B. thuringiensis: 0 mm
[4]
  Inhibition circle diameter (mm) P. aeruginosa CMCC(B)10104: 0 mm
[5]
  Inhibition circle diameter (mm) E. coli: 0 mm

## RIGRLVTRAAF [FD7]
[1]
  Inhibition circle diameter (mm) C. albicans CMCC(F) 98001: 0 mm
[2]
  Inhibition circle diameter (mm) S. aureus CMCC(B) 26003: 0 mm
[3]
  Inhibition circle diameter (mm) B. thuringiensis: 0 mm
[4]
  Inhibition circle diameter (mm) P. aeruginosa CMCC(B)10104: 0 mm
[5]
  Inhibition circle diameter (mm) E. coli: 0 mm

## FPVGRVHRLL [FD11]
[1]
  Inhibition circle diameter (mm) C. albicans CMCC(F) 98001: 0 mm
[2]
  Inhibition circle diameter (mm) S. aureus CMCC(B) 26003: 0 mm
[3]
  Inhibition circle diameter (mm) B. thuringiensis: 0 mm
[4]
  Inhibition circle diameter (mm) P. aeruginosa CMCC(B)10104: 0 mm
[5]
  Inhibition circle diameter (mm) E. coli: 0 mm

## ANWDKVIR [FD13]
[1]
  Inhibition circle diameter (mm) C. albicans CMCC(F) 98001: 0 mm
[2]
  Inhibition circle diameter (mm) S. aureus CMCC(B) 26003: 0 mm
[3]
  Inhibition circle diameter (mm) B. thuringiensis: 0 mm
[4]
  Inhibition circle diameter (mm) P. aeruginosa CMCC(B)10104: 0 mm
[5]
  Inhibition circle diameter (mm) E. coli: 0 mm

## KLLVPRCR [FD6]
[1]
  Inhibition circle diameter (mm) C. albicans CMCC(F) 98001: 0 mm
[2]
  Inhibition circle diameter (mm) S. aureus CMCC(B) 26003: 0 mm
[3]
  Inhibition circle diameter (mm) B. thuringiensis: 0 mm
[4]
  Inhibition circle diameter (mm) P. aeruginosa CMCC(B)10104: 0 mm
[5]
  Inhibition circle diameter (mm) E. coli: 0 mm

## STLHLVLRLR [FD16]
[1]
  Inhibition circle diameter (mm) C. albicans CMCC(F) 98001: 0 mm
[2]
  Inhibition circle diameter (mm) S. aureus CMCC(B) 26003: 0 mm
[3]
  Inhibition circle diameter (mm) B. thuringiensis: 0 mm
[4]
  Inhibition circle diameter (mm) P. aeruginosa CMCC(B)10104: 0 mm
[5]
  Inhibition circle diameter (mm) E. coli: 0 mm

## VFRLKKWIQKVI [FD10]
[6]
  MIC (μg/mL) E. coli: 8 µg/mL
[11]
  MIC (μg/mL) C. albicans CMCC(F) 98001: 16 µg/mL
[7]
  MIC, Control: 16 mg/L
  MIC, FeCl3: 16 mg/L
  MIC, KCl: 8 mg/L
  MIC, MgCl2: 32 mg/L
  MIC, NaCl: 32 mg/L
[8]
  MIC (μg/mL) S. aureus CMCC(B) 26003: 16 µg/mL
[12]
  MIC (μg/mL) P. aeruginosa CMCC(B)10104: 8 µg/mL
[9]
  MIC (μg/mL) B. thuringiensis: 8 µg/mL
[10]
  MIC, Control: 8 mg/L
  MIC, FeCl3: 4 mg/L
  MIC, KCl: 4 mg/L
  MIC, MgCl2: 16 mg/L
  MIC, NaCl: 16 mg/L

## ANWKKVIR [FD14]
[6]
  MIC (μg/mL) E. coli: 256 µg/mL
[12]
  MIC (μg/mL) P. aeruginosa CMCC(B)10104: 256 µg/mL
[9]
  MIC (μg/mL) B. thuringiensis: 256 µg/mL

## LARTLKRLGM [FD2]
[1]
  Inhibition circle diameter (mm) C. albicans CMCC(F) 98001: 0 mm
[2]
  Inhibition circle diameter (mm) S. aureus CMCC(B) 26003: 0 mm
[3]
  Inhibition circle diameter (mm) B. thuringiensis: 0 mm
[4]
  Inhibition circle diameter (mm) P. aeruginosa CMCC(B)10104: 0 mm
[5]
  Inhibition circle diameter (mm) E. coli: 0 mm

## IRAWVAWRNR [FD3]
[1]
  Inhibition circle diameter (mm) C. albicans CMCC(F) 98001: 0 mm
[2]
  Inhibition circle diameter (mm) S. aureus CMCC(B) 26003: 0 mm
[3]
  Inhibition circle diameter (mm) B. thuringiensis: 0 mm
[4]
  Inhibition circle diameter (mm) P. aeruginosa CMCC(B)10104: 0 mm
[5]
  Inhibition circle diameter (mm) E. coli: 0 mm

## SLARAGKVR [FD9]
[1]
  Inhibition circle diameter (mm) C. albicans CMCC(F) 98001: 0 mm
[2]
  Inhibition circle diameter (mm) S. aureus CMCC(B) 26003: 0 mm
[3]
  Inhibition circle diameter (mm) B. thuringiensis: 0 mm
[4]
  Inhibition circle diameter (mm) P. aeruginosa CMCC(B)10104: 0 mm
[5]
  Inhibition circle diameter (mm) E. coli: 0 mm

## IVHLLTKMTK [FD4]
[8]
  MIC (μg/mL) S. aureus CMCC(B) 26003: 256 µg/mL
